Data as given in patent US12077503B2, “Substituted cyclic amides and their use as herbicides” (FMC CORPORATION, priority 2015, dated 2024).

How the values were obtained:
Format in all cases: in vivo
[1] = tested on: Kochia (Kochia scoparia); assay: Test A preemergence; conditions: Bassia scoparia, pre-emergence, 240 h, read-out: Plant response rating, Kochia; for pest or weed control at 125 g/ha: 125 g ai/ha, preemergence, visual rating after approx. 10 d, 0 to 100 scale where 0 is no effect and 100 is complete control; for pest or weed control at 31 g/ha: Preemergence, 31 g ai/ha, 0 to 100 scale (0 no effect, 100 complete control)
How it was run: (§1)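 Seeded soil received test chemicals as a preemergence directed spray, and seedlings at one to two leaves, 2–10 cm tall, received them postemergence, in a non-phytotoxic, surfactant-containing solvent mixture. Pots were held in a greenhouse for approximately 10 d, then rated for injury from 0, no effect, to 100, complete control.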

[2] = tested on: barnyardgrass (Echinochloa crus-galli); assay: Test A preemergence; conditions: Echinochloa crus-galli, pre-emergence, 240 h, read-out: Plant response rating, Barnyardgrass; for pest or weed control at 125 g/ha: 125 g ai/ha, preemergence, visual rating after approx. 10 d, 0 to 100 scale where 0 is no effect and 100 is complete control; for pest or weed control at 31 g/ha: Preemergence, 31 g ai/ha, 0 to 100 scale (0 no effect, 100 complete control)
How it was run: as §1

[3] = tested on: giant foxtail (Setaria faberii); assay: Test A preemergence; conditions: Setaria faberi, pre-emergence, 240 h, read-out: Plant response rating, Foxtail, Giant; for pest or weed control at 125 g/ha: 125 g ai/ha, preemergence, visual rating after approx. 10 d, 0 to 100 scale where 0 is no effect and 100 is complete control; for pest or weed control at 31 g/ha: Preemergence, 31 g ai/ha, 0 to 100 scale (0 no effect, 100 complete control)
How it was run: as §1

[4] = tested on: pigweed (Amaranthus retroflexus); assay: Test A preemergence; conditions: Amaranthus retroflexus, pre-emergence, 240 h, read-out: Plant response rating, Pigweed; for pest or weed control at 125 g/ha: 125 g ai/ha, preemergence, visual rating after approx. 10 d, 0 to 100 scale where 0 is no effect and 100 is complete control; for pest or weed control at 31 g/ha: Preemergence, 31 g ai/ha, 0 to 100 scale (0 no effect, 100 complete control)
[5] = tested on: ragweed (common ragweed, Ambrosia elatior); assay: Test A preemergence; conditions: Ambrosia artemisiifolia, pre-emergence, 240 h, read-out: Plant response rating, Ragweed; for pest or weed control at 125 g/ha: 125 g ai/ha, preemergence, visual rating after approx. 10 d, 0 to 100 scale where 0 is no effect and 100 is complete control; for pest or weed control at 31 g/ha: Preemergence, 31 g ai/ha, 0 to 100 scale (0 no effect, 100 complete control)
How it was run: as §1

[6] = tested on: ryegrass, Italian (Italian ryegrass, Lolium multiflorum); assay: Test A preemergence; conditions: Lolium multiflorum, pre-emergence, 240 h, read-out: Plant response rating, Ryegrass, Italian; for pest or weed control at 125 g/ha: 125 g ai/ha, preemergence, visual rating after approx. 10 d, 0 to 100 scale where 0 is no effect and 100 is complete control; for pest or weed control at 31 g/ha: Preemergence, 31 g ai/ha, 0 to 100 scale (0 no effect, 100 complete control)
How it was run: as §1

[7] = tested on: Galium (catchweed bedstraw, Galium aparine); assay: Test A postemergence; conditions: Galium, post-emergence, 240 h; for pest or weed control at 125 g/ha: 125 g ai/ha, postemergence, visual injury rating after approximately 10 d, read-out: Galium plant response rating (0 to 100 scale, 0 no effect, 100 complete control); for pest or weed control at 31 g/ha: Postemergence, 31 g ai/ha, visual injury after approx. 10 d, 0 to 100 scale, 0 no effect, 100 complete control, read-out: Plant response rating, Galium
How it was run: as §1

[8] = tested on: Kochia (Kochia scoparia); assay: Test A postemergence; conditions: Bassia scoparia, post-emergence, 240 h; for pest or weed control at 125 g/ha: 125 g ai/ha, postemergence, visual injury rating after approximately 10 d, read-out: Kochia plant response rating (0 to 100 scale, 0 no effect, 100 complete control); for pest or weed control at 31 g/ha: Postemergence, 31 g ai/ha, visual injury after approx. 10 d, 0 to 100 scale, 0 no effect, 100 complete control, read-out: Plant response rating, Kochia
How it was run: as §1

[9] = tested on: barnyardgrass (Echinochloa crus-galli); assay: Test A postemergence; conditions: Echinochloa crus-galli, post-emergence, 240 h; for pest or weed control at 125 g/ha: 125 g ai/ha, postemergence, visual injury rating after approximately 10 d, read-out: Barnyardgrass plant response rating (0 to 100 scale, 0 no effect, 100 complete control); for pest or weed control at 31 g/ha: Postemergence, 31 g ai/ha, visual injury after approx. 10 d, 0 to 100 scale, 0 no effect, 100 complete control, read-out: Plant response rating, Barnyardgrass
How it was run: as §1

[10] = tested on: blackgrass (Alopecurus myosuroides); assay: Test A postemergence; conditions: Alopecurus myosuroides, post-emergence, 240 h; for pest or weed control at 125 g/ha: 125 g ai/ha, postemergence, visual injury rating after approximately 10 d, read-out: Blackgrass plant response rating (0 to 100 scale, 0 no effect, 100 complete control); for pest or weed control at 31 g/ha: Postemergence, 31 g ai/ha, visual injury after approx. 10 d, 0 to 100 scale, 0 no effect, 100 complete control, read-out: Plant response rating, Blackgrass
How it was run: as §1

[11] = tested on: corn (Zea mays); assay: Test A postemergence; conditions: Zea mays, post-emergence, 240 h; for plant injury at 125 g/ha: 125 g ai/ha, postemergence, visual injury rating after approximately 10 d, read-out: Corn plant response rating (0 to 100 scale, 0 no effect, 100 complete control); for Corn plant response rating (crop injury, 0 = no effect, 100 = complete kill) at 31 g/ha: Postemergence, 31 g ai/ha, visual injury after approx. 10 d, 0 to 100 scale, 100 complete control
How it was run: as §1

[12] = tested on: giant foxtail (Setaria faberii); assay: Test A postemergence; conditions: Setaria faberi, post-emergence, 240 h; for pest or weed control at 125 g/ha: 125 g ai/ha, postemergence, visual injury rating after approximately 10 d, read-out: Foxtail, Giant plant response rating (0 to 100 scale, 0 no effect, 100 complete control); for pest or weed control at 31 g/ha: Postemergence, 31 g ai/ha, visual injury after approx. 10 d, 0 to 100 scale, 0 no effect, 100 complete control, read-out: Plant response rating, Foxtail, Giant
How it was run: as §1

[13] = tested on: pigweed (Amaranthus retroflexus); assay: Test A postemergence; conditions: Amaranthus retroflexus, post-emergence, 240 h; for pest or weed control at 125 g/ha: 125 g ai/ha, postemergence, visual injury rating after approximately 10 d, read-out: Pigweed plant response rating (0 to 100 scale, 0 no effect, 100 complete control); for pest or weed control at 31 g/ha: Postemergence, 31 g ai/ha, visual injury after approx. 10 d, 0 to 100 scale, 0 no effect, 100 complete control, read-out: Plant response rating, Pigweed
How it was run: as §1

[14] = tested on: ragweed (common ragweed, Ambrosia elatior); assay: Test A postemergence; conditions: Ambrosia artemisiifolia, post-emergence, 240 h; for pest or weed control at 125 g/ha: 125 g ai/ha, postemergence, visual injury rating after approximately 10 d, read-out: Ragweed plant response rating (0 to 100 scale, 0 no effect, 100 complete control); for pest or weed control at 31 g/ha: Postemergence, 31 g ai/ha, visual injury after approx. 10 d, 0 to 100 scale, 0 no effect, 100 complete control, read-out: Plant response rating, Ragweed
How it was run: as §1

[15] = tested on: ryegrass, Italian (Italian ryegrass, Lolium multiflorum); assay: Test A postemergence; conditions: Lolium multiflorum, post-emergence, 240 h; for pest or weed control at 125 g/ha: 125 g ai/ha, postemergence, visual injury rating after approximately 10 d, read-out: Ryegrass, Italian plant response rating (0 to 100 scale, 0 no effect, 100 complete control); for pest or weed control at 31 g/ha: Postemergence, 31 g ai/ha, visual injury after approx. 10 d, 0 to 100 scale, 0 no effect, 100 complete control, read-out: Plant response rating, Ryegrass, Italian
How it was run: as §1

| Compound | pest or weed control at 125 g/ha [1] [%] | pest or weed control at 31 g/ha [1] [%] | pest or weed control at 125 g/ha [2] [%] | pest or weed control at 31 g/ha [2] [%] | pest or weed control at 125 g/ha [3] [%] | pest or weed control at 31 g/ha [3] [%] | pest or weed control at 125 g/ha [4] [%] | pest or weed control at 31 g/ha [4] [%] | pest or weed control at 125 g/ha [5] [%] | pest or weed control at 31 g/ha [5] [%] | pest or weed control at 125 g/ha [6] [%] | pest or weed control at 31 g/ha [6] [%] | pest or weed control at 125 g/ha [7] [%] | pest or weed control at 31 g/ha [7] [%] | pest or weed control at 125 g/ha [8] [%] | pest or weed control at 31 g/ha [8] [%] | pest or weed control at 125 g/ha [9] [%] | pest or weed control at 31 g/ha [9] [%] | pest or weed control at 125 g/ha [10] [%] | pest or weed control at 31 g/ha [10] [%] | other results |
| --- | --- | --- | --- | --- | --- | --- | --- | --- | --- | --- | --- | --- | --- | --- | --- | --- | --- | --- | --- | --- | --- |
| CN1C[C@H](c2ccc(C(F)(F)F)c(Br)c2)[C@@H](C(=O)Nc2cccc(F)c2F)C1=O [Compound 804] | 20 | 0 | 90 | 70 | 80 | 70 | 60 | 0 | 0 | 0 | 50 | 40 | 50 | 40 | 70 | 40 | 70 | 20 | 20 | 0 | plant injury at 125 g/ha [11]: 50%; Corn plant response rating (crop injury, 0 = no effect, 100 = complete kill) at 31 g/ha [11]: 0%; pest or weed control at 125 g/ha [12]: 80%; pest or weed control at 31 g/ha [12]: 60%; pest or weed control at 125 g/ha [13]: 60%; pest or weed control at 31 g/ha [13]: 50%; pest or weed control at 125 g/ha [14]: 0%; pest or weed control at 31 g/ha [14]: 0%; pest or weed control at 125 g/ha [15]: 0%; pest or weed control at 31 g/ha [15]: 0% |
| CN1CC[C@H](c2cccc(OC(F)(F)F)c2)[C@@H](C(=O)Nc2ccccc2C(F)(F)F)C1=O [Compound 806] | 0 | 0 | 0 | 0 | 0 | 0 | 0 | 0 | 0 | 0 | 0 | 0 | 0 | 0 | 0 | 0 | 0 | 0 | 0 | 0 | plant injury at 125 g/ha [11]: 0%; Corn plant response rating (crop injury, 0 = no effect, 100 = complete kill) at 31 g/ha [11]: 0%; pest or weed control at 125 g/ha [12]: 0%; pest or weed control at 31 g/ha [12]: 0%; pest or weed control at 125 g/ha [13]: 0%; pest or weed control at 31 g/ha [13]: 0%; pest or weed control at 125 g/ha [14]: 0%; pest or weed control at 31 g/ha [14]: 0%; pest or weed control at 125 g/ha [15]: 0%; pest or weed control at 31 g/ha [15]: 0% |
